Results published in US8063053B2, “1-(arylsulfonyl)-4-(piperazin-1-yl)-1H-benzimidazoles as 5-hydroxytryptamine-6 ligands” (Wyeth LLC, priority 2008, dated 2011).
pKi: −log10 of the molar value.

Target: T1, serotonin 5-HT6 receptor subtype (Homo sapiens, UniProt P50406)
T1 construct: host or cells: CHO-Dukx-A2 cells, clone 50-7
Assay: 5-HT6 binding affinity ([3H]-LSD SPA binding)
Settings: read-out: 5-HT6 binding Ki

T1 sequence (P50406 whole entry): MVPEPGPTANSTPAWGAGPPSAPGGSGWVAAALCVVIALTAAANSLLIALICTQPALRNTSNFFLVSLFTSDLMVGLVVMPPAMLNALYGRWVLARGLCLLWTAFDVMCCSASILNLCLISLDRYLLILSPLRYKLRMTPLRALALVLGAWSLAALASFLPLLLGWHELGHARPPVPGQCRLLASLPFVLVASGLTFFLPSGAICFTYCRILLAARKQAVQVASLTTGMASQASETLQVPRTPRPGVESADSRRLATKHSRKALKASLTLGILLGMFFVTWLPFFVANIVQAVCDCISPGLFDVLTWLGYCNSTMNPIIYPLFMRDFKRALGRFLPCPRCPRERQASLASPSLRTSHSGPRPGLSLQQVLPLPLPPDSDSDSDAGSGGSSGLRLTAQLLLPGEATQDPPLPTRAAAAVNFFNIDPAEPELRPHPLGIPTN

SMILES	pKi
CC(C)c1nc2c(N3CCNCC3)cccc2n1S(=O)(=O)c1cccc2c(Cl)cccc12 [Example 62, 1-[(5-chloronaphthalen-1-yl)sulfonyl]-2-(1-methylethyl)-4-piperazin-1-yl-1H-benzimidazole]	8.83
CC(C)c1nc2c(N3CCNCC3)cccc2n1S(=O)(=O)c1ccccc1OC(F)(F)F [Example 63, 2-(1-methylethyl)-4-piperazin-1-yl-1-{[2-(trifluoromethoxy)phenyl]sulfonyl}-1H-benzimidazole]	8.94
Cc1ccc(S(=O)(=O)n2c(C(C)C)nc3c(N4CCNCC4)cccc32)c2ccccc12 [Example 64, 2-(1-methylethyl)-1-[(4-methylnaphthalen-1-yl)sulfonyl]-4-piperazin-1-yl-1H-benzimidazole]	8.80
COc1ccc(Cl)cc1S(=O)(=O)n1cnc2c(N3CCNCC3)cccc21 [Example 65, 1-[(5-chloro-2-methoxyphenyl)sulfonyl]-4-piperazin-1-yl-1H-benzimidazole]	8.45
COc1ccc(Br)cc1S(=O)(=O)n1cnc2c(N3CCNCC3)cccc21 [Example 66, 1-[(5-bromo-2-methoxyphenyl)sulfonyl]-4-piperazin-1-yl-1H-benzimidazole]	8.31
COc1ccc(OC)c(S(=O)(=O)n2cnc3c(N4CCNCC4)cccc32)c1 [Example 67, 1-[(2,5-dimethoxyphenyl)sulfonyl]-4-piperazin-1-yl-1H-benzimidazole]	8.67
COc1cc(C)ccc1S(=O)(=O)n1cnc2c(N3CCNCC3)cccc21 [Example 69, 1-[(2-methoxy-4-methylphenyl)sulfonyl]-4-piperazin-1-yl-1H-benzimidazole]	8.67
Cc1cccc(Cl)c1S(=O)(=O)n1cnc2c(N3CCNCC3)cccc21 [Example 70, 1-[(2-chloro-6-methylphenyl)sulfonyl]-4-piperazin-1-yl-1H-benzimidazole]	8.63
O=S(=O)(c1cc(C(F)(F)F)ccc1Cl)n1cnc2c(N3CCNCC3)cccc21 [Example 71, 1-{[2-chloro-5-(trifluoromethyl)phenyl]sulfonyl}-4-piperazin-1-yl-1H-benzimidazole]	7.86
C[C@@H]1CN(c2cccc3c2ncn3S(=O)(=O)c2ccccc2Cl)CCN1 [Example 75, 1-[(2-chlorophenyl)sulfonyl]-4-[(3R)-3-methylpiperazin-1-yl]-1H-benzimidazole]	8.92
C[C@@H]1CN(c2cccc3c2ncn3S(=O)(=O)c2cccc(Cl)c2)CCN1 [Example 76, 1-[(3-chlorophenyl)sulfonyl]-4-[(3R)-3-methylpiperazin-1-yl]-1H-benzimidazole]	8.63
Cc1c(Cl)cccc1S(=O)(=O)n1cnc2c(N3CCN[C@H](C)C3)cccc21 [Example 77, 1-[(3-chloro-2-methylphenyl)sulfonyl]-4-[(3R)-3-methylpiperazin-1-yl]-1H-benzimidazole]	8.92
C[C@@H]1CN(c2cccc3c2ncn3S(=O)(=O)c2cccc3ccccc23)CCN1 [Example 78, 4-[(3R)-3-methylpiperazin-1-yl]-1-(naphthalen-1-ylsulfonyl)-1H-benzimidazole]	8.89
O=S(=O)(c1c(Cl)cccc1Cl)n1cnc2c(N3CCNCC3)cccc21 [Example 86, 1-[(2,6-dichlorophenyl)sulfonyl]-4-piperazin-1-yl-1H-benzimidazole]	8.88
COc1cc(C)c(Cl)cc1S(=O)(=O)n1cnc2c(N3CCNCC3)cccc21 [Example 90, 1-[(5-chloro-2-methoxy-4-methylphenyl)sulfonyl]-4-piperazin-1-yl-1H-benzimidazole]	7.89
Cc1nc2c(N3CCNC(C)C3)cccc2n1S(=O)(=O)c1ccccc1 (stereo not drawn) [Example 91, 2-methyl-4-(3-methylpiperazin-1-yl)-1-(phenylsulfonyl)-1H-benzimidazole]	8.61
Cc1nc2c(N3CCNC(C)C3)cccc2n1S(=O)(=O)c1cccc(F)c1 (stereo not drawn) [Example 94, 1-[(3-fluorophenyl)sulfonyl]-2-methyl-4-(3-methylpiperazin-1-yl)-1H-benzimidazole]	8.97
Cc1nc2c(N3C[C@@H](C)N[C@@H](C)C3)cccc2n1S(=O)(=O)c1ccccc1 [Example 96, 4-[(3R,5S)-3,5-dimethylpiperazin-1-yl]-2-methyl-1-(phenylsulfonyl)-1H-benzimidazole]	7.57
Cc1nc2c(N3C[C@@H](C)N[C@@H](C)C3)cccc2n1S(=O)(=O)c1cccc2ccccc12 [Example 97, 4-[(3R,5S)-3,5-dimethylpiperazin-1-yl]-2-methyl-1-(naphthalen-1-ylsulfonyl)-1H-benzimidazole]	8.42
Cc1nc2c(N3C[C@@H](C)N[C@@H](C)C3)cccc2n1S(=O)(=O)c1ccccc1Cl [Example 98, 1-[(2-chlorophenyl)sulfonyl]-4-[(3R,5S)-3,5-dimethylpiperazin-1-yl]-2-methyl-1H-benzimidazole]	8.46
Cc1nc2c(N3C[C@@H](C)N[C@@H](C)C3)cccc2n1S(=O)(=O)c1cccc(F)c1 [Example 99, 4-[(3R,5S)-3,5-dimethylpiperazin-1-yl]-1-[(3-fluorophenyl)sulfonyl]-2-methyl-1H-benzimidazole]	7.89
Cc1c(Cl)cccc1S(=O)(=O)n1c(C)nc2c(N3C[C@@H](C)N[C@@H](C)C3)cccc21 [Example 100, 1-[(3-chloro-2-methylphenyl)sulfonyl]-4-[(3R,5S)-3,5-dimethylpiperazin-1-yl]-2-methyl-1H-benzimidazole]	8.64
O=S(=O)(c1cccc2ccccc12)n1cnc2c(N3CCNCC3)cc(F)cc21 [Example 101, 6-fluoro-1-(naphthalen-1-ylsulfonyl)-4-piperazin-1-yl-1H-benzimidazole]	8.88
O=S(=O)(c1ccccc1)n1cnc2c(N3C[C@@H]4C[C@H]3CN4)cccc21 [Example 104, 4-[(1S,4S)-2,5-diazabicyclo[2.2.1]hept-2-yl]-1-(phenylsulfonyl)-1H-benzimidazole]	7.35

Now those with a higher pKi, led by results:

pKi	SMILES
9.30	COc1ccc(C)cc1S(=O)(=O)n1cnc2c(N3CCNCC3)cccc21 [Example 68, 1-[(2-methoxy-5-methylphenyl)sulfonyl]-4-piperazin-1-yl-1H-benzimidazole]
9.60	Cc1ccc(F)c(S(=O)(=O)n2cnc3c(N4CCNCC4)cccc32)c1 [Example 72, 1-[(2-fluoro-5-methylphenyl)sulfonyl]-4-piperazin-1-yl-1H-benzimidazole]
9.69	Cc1cccc(S(=O)(=O)n2cnc3c(N4CCNCC4)cccc32)c1F [Example 73, 1-[(2-fluoro-3-methylphenyl)sulfonyl]-4-piperazin-1-yl-1H-benzimidazole]
9.31	COc1c(F)cccc1S(=O)(=O)n1cnc2c(N3CCNCC3)cccc21 [Example 74, 1-[(3-fluoro-2-methoxyphenyl)sulfonyl]-4-piperazin-1-yl-1H-benzimidazole]
9.55	C[C@H]1CN(c2cccc3c2ncn3S(=O)(=O)c2ccccc2Cl)CCN1 [Example 79, 1-[(2-chlorophenyl)sulfonyl]-4-[(3S)-3-methylpiperazin-1-yl]-1H-benzimidazole]
9.32	C[C@H]1CN(c2cccc3c2ncn3S(=O)(=O)c2cccc(Cl)c2)CCN1 [Example 80, 1-[(3-chlorophenyl)sulfonyl]-4-[(3S)-3-methylpiperazin-1-yl]-1H-benzimidazole]
9.45	C[C@H]1CN(c2cccc3c2ncn3S(=O)(=O)c2cccc3ccccc23)CCN1 [Example 81, 4-[(3S)-3-methylpiperazin-1-yl]-1-(naphthalen-1-ylsulfonyl)-1H-benzimidazole]
9.68	Cc1c(Cl)cccc1S(=O)(=O)n1cnc2c(N3CCN[C@@H](C)C3)cccc21 [Example 82, 1-[(3-chloro-2-methylphenyl)sulfonyl]-4-[(3S)-3-methylpiperazin-1-yl]-1H-benzimidazole]
9.40	O=S(=O)(c1cccc(F)c1F)n1cnc2c(N3CCNCC3)cccc21 [Example 83, 1-[(2,3-difluorophenyl)sulfonyl]-4-piperazin-1-yl-1H-benzimidazole]
9.07	O=S(=O)(c1cc(F)ccc1F)n1cnc2c(N3CCNCC3)cccc21 [Example 84, 1-[(2,5-difluorophenyl)sulfonyl]-4-piperazin-1-yl-1H-benzimidazole]
9.40	Cc1c(F)cccc1S(=O)(=O)n1cnc2c(N3CCNCC3)cccc21 [Example 87, 1-[(3-fluoro-2-methylphenyl)sulfonyl]-4-piperazin-1-yl-1H-benzimidazole]
9.23	O=S(=O)(c1cc(F)cc(Cl)c1)n1cnc2c(N3CCNCC3)cccc21 [Example 88, 1-[(3-chloro-5-fluorophenyl)sulfonyl]-4-piperazin-1-yl-1H-benzimidazole]
9.12	CCOc1ccccc1S(=O)(=O)n1c(C)nc2c(N3CCNCC3)cccc21 [Example 89, 1-[(2-ethoxyphenyl)sulfonyl]-2-methyl-4-piperazin-1-yl-1H-benzimidazole]
9.21	Cc1nc2c(N3CCNC(C)C3)cccc2n1S(=O)(=O)c1cccc2ccccc12 (stereo not drawn) [Example 92, 2-methyl-4-(3-methylpiperazin-1-yl)-1-(naphthalen-1-ylsulfonyl)-1H-benzimidazole]
9.31	Cc1nc2c(N3CCNC(C)C3)cccc2n1S(=O)(=O)c1ccccc1Cl (stereo not drawn) [Example 93, 1-[(2-chlorophenyl)sulfonyl]-2-methyl-4-(3-methylpiperazin-1-yl)-1H-benzimidazole]
9.40	Cc1c(Cl)cccc1S(=O)(=O)n1c(C)nc2c(N3CCNC(C)C3)cccc21 (stereo not drawn) [Example 95, 1-[(3-chloro-2-methylphenyl)sulfonyl]-2-methyl-4-(3-methylpiperazin-1-yl)-1H-benzimidazole]
9.16	O=S(=O)(c1ccccc1Cl)n1cnc2c(N3CCNCC3)cc(F)cc21 [Example 102, 1-[(2-chlorophenyl)sulfonyl]-6-fluoro-4-piperazin-1-yl-1H-benzimidazole]
9.13	O=S(=O)(c1ccccc1)n1cnc2c(N3CCNCC3)cc(F)cc21 [Example 103, 6-fluoro-1-(phenylsulfonyl)-4-piperazin-1-yl-1H-benzimidazole]
